# In publication PMC12349723, “Computationally accelerated identification of P-glycoprotein inhibitors” (PLOS One, 2025):
# Entries after “also recorded” stand apart in the source; their conditions may differ.
# How the values were obtained:
# [1] = Resazurin cell viability pre-screen in DU145-TXR cells with or without PTX; type: cell-based; conditions: human, mean of two experiments in triplicate, read-out: Viability, 15 µM compound alone
# Procedure: Culture of the DU145, DU145-TXR, and HFL1 cell lines was performed as described in [8]. Culture of the A2780 and A2780-ADR cell lines was performed as described in [9]. MTT assays were performed as described in [8] with minor modifications. LC-MS/MS accumulation assays were performed as described in {Nanayakkara, 2018 #173} [9] with some modifications. […] The inhibitor concentration was lowered to 15 µM here, as the goal of the study was to identify compounds that were effective in reversing MDR at low concentrations, and to determine if the expanded virtual-assisted methods improved on our first-draft attempt. Compounds 56–98 were pre-screened using Resazurin cell viability assays: cells were incubated with 15 µM compound with or without 500 nM PTX for 48 hours, after which cell survival was assessed similar to [39]. Data represent the mean of two separate experiments, with n = 3 samples per experiment (n = 6 total) (S4 Table). The top performing compounds from this initial screen were re-tested with MTT viability assays against DU145-TXR cells, as described below.
# S4 Table. Pre-screening of compounds 56 – 98 against DU145-TXR cells with resazurin assays. DU145-TXR cells were incubated with 15 µM compound with or without 500nM PTX for 48 hrs; survival was subsequently determined with the Resazurin viability assay ^[37]. […] Percent re-sensitization is defined as the percent change in viability between cells treated with compound and PTX, versus cells treated with PTX alone. In some instances, the assay reported an increase in viability with compound + PTX, and no percent sensitization is reported. ‘Follow-up Testing’ compounds were re-assessed with MTT assays (Figure 1). Compounds 59 and 89 (*, ‘Follow-up Testing’) were used as negative controls in follow-up MTT assays to test for consistency of results, e.g. to confirm that molecules eliminated in Resazurin assays were justifiably eliminated from later screening with MTT assays.
# P-gp [2] = target: T1, P-gp (Homo sapiens, UniProt P08183); test: Top Hit classification from combined in vitro criteria; conditions: reverse MDR, do not increase PTX toxicity in chemo-sensitive cancer cells, non-toxic to noncancerous cells, not P-gp substrates
# T1 construct: The MDR, P-gp overexpressing DU145-TXR cells were maintained under positive selection pressure; endogenous in cells; host or cells: DU145-TXR (paclitaxel-resistant sub-line of DU145 human prostate cancer cells)
# P-gp [3] = test: SWISS-ADME prediction of P-gp transport substrate; conditions: prediction compared to the LC-MS/MS intracellular accumulation data
# Text: (§1) Identifying P-gp inhibitors that are not transport substrates remains inherently challenging. To that end, computational tools such as the SWISS-ADME server attempt to use a molecule’s unique chemical and structural characteristics to predict whether it is likely to be a P-gp transport substrate. Our LC-MS/MS assays allowed us to retroactively test the validity of predictions from SWISS-ADME. […] Alternative identifiers for the molecules identified in this study are shown in S7 Table.
# (§2) S1 Table. Known P-gp Inhibitors and Predicted Chemical Properties. A non-exhaustive list of known P-gp inhibitors and their selected chemical properties ^[64, 65]. Clinical trial outcomes were adapted from ^[10, 11]. Compounds were evaluated using the SWISS-ADME server ^[54]. […] “Predicted P-gp Substrate” - predicted by SWISS-ADME to be a transport substrate of P-gp. “Known P-gp Substrate” – In addition to being P-gp inhibitors, these molecules are: known transport substrates of P-gp, known non-transport substrates of P-gp, unknown whether it is a transport substrate of P-gp ^[66-68]. If the molecule is designated in a specific generation of P-gp inhibitors - First Generation P-gp inhibitors, Second generation P-gp inhibitors, Third generation P-gp inhibitors.
# [4] = SWISS-ADME computational analysis of chemical properties; conditions: predicted aqueous solubility compared to that observed in the laboratory
# Text: as §1, §2
# P-gp [5] = target: T1, P-gp; test: Daunorubicin accumulation (fluorescence) assay in DU145-TXR cells; type: cell-based; conditions: for Effect on DAU fluorescence / intracellular DAU retention: DU145-TXR, 10 µM compound + 10 µM DAU, 2 h; for Significance (DAU + compound vs DAU alone): Student's T test of the mean
# Procedure: These assays are based upon those reported in [9]. DU145-TXR cells were seeded in 96 well plates in complete RPMI medium at 15,000 cells per well. Cells were allowed to grow for 48 hours in a humidified incubator at 37 °C and 5% CO2. After 48 hours, media was replaced with fresh complete RPMI medium. Cells were treated with 10 µM of experimental compound with or without 10 µM daunorubicin (DAU). After a 2-hour incubation at 37 °C and 5% CO2 in a humidified incubator, media was removed with a vacuum aspirator, and cells were washed twice with ice-cold phosphate buffered saline (PBS) solution. Cells were lysed in PBS containing 0.5% SDS and 0.5% Triton X-100 and shaken on an Orbital Shaker for 10 min at 500 rpm. […] Data are the mean ± one standard deviation from three independent experiments, 3 samples per experiment. Statistical significance was determined with a Student’s T test in GraphPad prism.
# Δ DAU Fluorescence= Fluorescence of (Compound+DAU) treated cells/Fluorescence of DAU treated cells
# These assays used the P-gp highly overexpressing DU145-TXR cell line. In this assay, the intrinsic fluorescence of DAU was used to quantify its relative concentration in the cell. An increase in fluorescence correlates with an increase in the intracellular accumulation of DAU. […] Cells were treated with 10 µM of experimental compound with or without 10 µM DAU. After a 2-hour incubation, cells were washed and lysed, and the total fluorescence of DAU in each well was quantified.
# Fig 5 Change in fluorescence of DAU in the presence of experimental compounds. Fold change in fluorescence of the P-gp substrate Daunorubicin (DAU) in the presence or absence of experimental compounds or known P-gp modulators. Cells were treated with 10 µM compound in the presence or absence of 10 µM DAU. After washing and lysing the cells, the intracellular DAU fluorescence was measured and expressed as a fold change relative to the fluorescence of DU145-TXR cells treated with DAU alone. […] Three samples per trial, three independent trials. Significance was determined using a Student’s T test of the mean by comparing fluorescence of DAU and compound to that of DAU alone; P > 0.05 = N.S., P < 0.05 = *, P < 0.01 = **, P < 0.001 = ***, P < 0.0001 = ****. Data also shown in S4 Fig.
# T1 sequence (P08183 whole entry): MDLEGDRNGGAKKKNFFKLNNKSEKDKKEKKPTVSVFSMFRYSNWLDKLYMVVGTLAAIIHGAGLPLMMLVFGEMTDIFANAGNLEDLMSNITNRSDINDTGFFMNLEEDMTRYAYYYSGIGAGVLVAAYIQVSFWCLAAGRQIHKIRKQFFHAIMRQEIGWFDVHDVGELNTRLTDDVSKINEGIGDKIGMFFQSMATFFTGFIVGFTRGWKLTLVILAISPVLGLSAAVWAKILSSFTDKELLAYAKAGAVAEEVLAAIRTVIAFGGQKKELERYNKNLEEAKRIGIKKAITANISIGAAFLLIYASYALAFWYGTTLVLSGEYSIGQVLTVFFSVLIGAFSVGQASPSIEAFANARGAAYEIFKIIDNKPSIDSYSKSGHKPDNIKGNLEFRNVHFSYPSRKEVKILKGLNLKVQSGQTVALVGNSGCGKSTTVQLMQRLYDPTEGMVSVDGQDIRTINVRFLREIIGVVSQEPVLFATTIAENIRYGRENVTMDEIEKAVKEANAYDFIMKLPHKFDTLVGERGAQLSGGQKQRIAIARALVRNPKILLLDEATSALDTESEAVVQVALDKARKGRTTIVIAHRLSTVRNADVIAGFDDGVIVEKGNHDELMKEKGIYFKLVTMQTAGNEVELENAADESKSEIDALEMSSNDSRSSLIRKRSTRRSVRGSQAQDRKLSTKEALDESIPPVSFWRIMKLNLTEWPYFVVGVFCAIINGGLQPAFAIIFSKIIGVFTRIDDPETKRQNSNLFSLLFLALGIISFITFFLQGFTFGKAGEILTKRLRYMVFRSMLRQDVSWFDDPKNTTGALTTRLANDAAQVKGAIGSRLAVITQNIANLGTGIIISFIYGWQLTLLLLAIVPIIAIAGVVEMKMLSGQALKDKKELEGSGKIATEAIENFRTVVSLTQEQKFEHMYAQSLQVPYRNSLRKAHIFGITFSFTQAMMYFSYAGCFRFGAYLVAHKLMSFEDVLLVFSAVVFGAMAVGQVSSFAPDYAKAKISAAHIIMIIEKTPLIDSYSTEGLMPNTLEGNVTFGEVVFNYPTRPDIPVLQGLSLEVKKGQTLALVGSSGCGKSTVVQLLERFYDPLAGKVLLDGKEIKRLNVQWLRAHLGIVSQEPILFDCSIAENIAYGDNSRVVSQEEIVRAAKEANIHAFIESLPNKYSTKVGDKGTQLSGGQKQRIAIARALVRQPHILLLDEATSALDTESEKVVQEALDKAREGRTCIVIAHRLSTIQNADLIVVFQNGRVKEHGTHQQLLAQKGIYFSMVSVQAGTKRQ
Significance (DAU + compound vs DAU alone) (P-gp [5]),SMILES,"viability at 48 h, 15 µM [1]",Top Hit (P-gp [2]),Correct P-gp Substrate Prediction? (P-gp [3]),Correct Water Solubility Prediction? [4],Effect on DAU fluorescence / intracellular DAU retention (P-gp [5])
–,"O=C(c1cc2ccccc2[nH]1)N1CCN(S(=O)(=O)c2cccc3nonc23)CC1 [Compound 66, O=C(N1CCN(CC1)S(=O)(=O)c1cccc2nonc12)c1cc2ccccc2[nH]1]",98.3%,No,No,Yes,–
–,"Nc1nonc1-n1nnc(C(=O)N/N=C/c2c3ccccc3cc3ccccc23)c1COc1ccc(F)cc1 [Compound 60, Nc1nonc1-n1nnc(C(=O)N\N=C\c2c3ccccc3cc3ccccc23)c1COc1ccc(F)cc1]",88%,No,No,No,–
* (P < 0.05 = *),"Cc1onc(-c2ccccc2)c1-c1nnc(Cn2cnc3c(oc4ccccc43)c2=O)o1 [Compound 78, Cc1onc(c1-c1nnc(Cn2cnc3c4ccccc4oc3c2=O)o1)-c1ccccc1]",95.2%,Yes,No,Yes,significant decrease in fluorescence; also recorded: did not cause an increase in intracellular DAU retention
–,"NS(=O)(=O)c1cccc(NC(=O)CSc2nnnn2C2CC2)c1 [Compound 89, NS(=O)(=O)c1cccc(NC(=O)CSc2nnnn2C2CC2)c1]",93.7%,No,–,Yes,–
–,"O=C(c1nc(-c2ccccn2)no1)N1CCN(c2nsc3ccccc23)CC1 [Compound 124, O=C(N1CCN(CC1)c1nsc2ccccc12)c1nc(no1)-c1ccccn1]",–,No,No,Yes,–
N.S. (P > 0.05 = N.S.),"Cc1onc(-c2ccccc2)c1-c1nnc(Cn2cnc3ccccc3c2=O)o1 [Compound 111, Cc1onc(c1-c1nnc(Cn2cnc3ccccc3c2=O)o1)-c1ccccc1]",–,Yes,No,Yes,did not cause an increase in intracellular DAU retention
–,"O=C(NCc1cccc(F)c1)c1nnn2c1Sc1c(C(=O)NCc3cccc(F)c3)nnn1CC2 [Compound 122, Fc1cccc(CNC(=O)c2nnn3CCn4nnc(C(=O)NCc5cccc(F)c5)c4Sc23)c1]",–,No,Yes,Yes,–
–,"COc1ccc(OC)c(NC(=O)c2nnn(-c3ccc4noc(-c5ccccc5)c4c3)c2C)c1 [Compound 71, COc1ccc(OC)c(NC(=O)c2nnn(c2C)-c2ccc3noc(-c4ccccc4)c3c2)c1]",93%,No,No,Yes,–
–,"CCN1CCN(Cc2c(C(=O)N/N=C3/C(=O)N(C)c4ccccc43)nnn2-c2nonc2N)CC1 [Compound 61, CCN1CCN(Cc2c(nnn2-c2nonc2N)C(=O)N\N=C2\C(=O)N(C)c3ccccc23)CC1]",98.8%,No,Yes,No,–
**** (P < 0.0001 = ****),"COc1cc2c(cc1OC)CN(CCc1ccc(NC(=O)c3cc(OC)c(OC)cc3NC(=O)c3cnc4ccccc4c3)cc1)CC2 [Tariquidar, reference compound]",75.2%,–,–,–,–
N.S. (P > 0.05 = N.S.),"Cn1cnnc1SCc1c(C(=O)O)nnn1-c1nonc1N [Compound 59, Cn1cnnc1SCc1c(nnn1-c1nonc1N)C(O)=O]",101%,No,–,Yes,–
**** (P < 0.0001 = ****),"O=S(=O)(CCSc1nnc(-c2ccccc2)c2ccccc12)c1ccccc1 [Compound 96, O=S(=O)(CCSc1nnc(-c2ccccc2)c2ccccc12)c1ccccc1]",89.4%,Yes,Yes,No,–

SMILES,Significance (DAU + compound vs DAU alone) (P-gp [5]),"viability at 48 h, 15 µM [1]",Top Hit (P-gp [2]),Correct P-gp Substrate Prediction? (P-gp [3]),Correct Water Solubility Prediction? [4],Effect on DAU fluorescence / intracellular DAU retention (P-gp [5])
"COc1cccc(N2CCN(c3ccc4nnc(CCC(=O)Nc5ccc(F)c(F)c5)n4n3)CC2)c1 [Compound 101, COc1cccc(c1)N1CCN(CC1)c1ccc2nnc(CCC(=O)Nc3ccc(F)c(F)c3)n2n1]",**** (P < 0.0001 = ****),–,Yes,No,Yes,–
"O=C(c1nc(-c2ccc3cc[nH]c3c2)no1)N1CCN(c2nsc3ccccc23)CC1 [Compound 70, O=C(N1CCN(CC1)c1nsc2ccccc12)c1nc(no1)-c1ccc2cc[nH]c2c1]",* (P < 0.05 = *),99.2%,Yes,No,Yes,–
"O=S(=O)(Cc1nc2ccccc2n1CC(O)c1ccc(Cl)cc1)c1ccccc1 (centres unmarked) [Compound 97, OC(Cn1c(CS(=O)(=O)c2ccccc2)nc2ccccc12)c1ccc(Cl)cc1]",**** (P < 0.0001 = ****),102%,Yes,Yes,Yes,–
"Cc1ccc(-c2noc(-c3cn(Cc4ccc(NS(=O)(=O)c5ccccc5F)cc4)cn3)n2)cc1 [Compound 103, Cc1ccc(cc1)-c1noc(n1)-c1cn(Cc2ccc(NS(=O)(=O)c3ccccc3F)cc2)cn1]",** (P < 0.01 = **),–,No,No,No,–
